The test concerns arthritic (CIA) DBA/1J mice. In words: Collagen induced arthritis in mouse. The test is classed as in vivo. The following applies: Enbrel 3 mg/kg s.c. once daily, 23 days. On the procedure: The assay was designed as in reference, J. Exp. Med., 1985, 162, 637-646, the disclosure of which is incorporated herein by reference for the teaching of the assay.
Male DBA/1J mice (originally procured from Jackson Laboratories, USA), aged 8-10 weeks were immunized with an emulsion equivalent to 200 μg of type II collagen in Freund's Complete Adjuvant, injected intradermally at the base of the tail. A booster shot with the same emulsion was given 21 days later. A group of naïve mice was maintained alongside.
From day 23 to day 56, mice were examined daily once for the signs of rheumatoid arthritis, using the Articular Index and paw thickness as parameters. Articular Index scoring was performed employing the following criteria:
Mice with a minimum hind paw score of 2 were inducted into the study.
Mice were randomized into the various study groups and orally administered the vehicle (0.5% CMC, 1 ml/kg), test compound (compound of example 3, 50 mg/kg twice daily) and standard compound (Enbrel, 3 mg/kg, s.c., once daily). […] The dosing of the compounds was done for 23 days.
The following parameters were observed and recorded daily, • 1. Body weight • 2. Articular index • 3. Paw thickness in mm using a tension free caliper • 4. Any significant observation regarding the condition of the animal. […]
The results are graphically depicted in FIG. 3 (Articular index versus days of treatment) and FIG. 4 (Paw thickness versus days of treatment). Data obtained during the course of this study (articular index and paw thickness) was statistically evaluated by applying Mann-Whitney U test.
Mice were humanely euthanized and the hind paws were harvested from each animal, fixed in 10% neutral buffered formalin, decalcified in 5% formic acid and embedded in paraffin. Section […] were stained with either hematoxylin and eosin or safranin 0 and evaluated microscopically. Histopathological changes were scored as follows: mild (score=1), moderate (score=2) or severe (score=3) for the parameters of cellular infiltration, bone erosions and cartilage damage, graded separately. […]

As for Enbrel, the “Severity of disease by articular index and paw thickness” value is listed as “significant reduction in the severity of the disease”.
